Read-outs that look alike come from different tables or passages of the source. Values belong to the compound of their own block, whether it stands above or below them.
System: HCC461
Test: cell viability assay in HCC461, compound alone
Format: cell-based
[1] = HCC461, HCC461 cells, compound alone, read-out: IC50 (uM) in cell viability assay in HCC461
[2] = HCC461, HCC461, Tables 15-18, read-out: IC50 (uM) in cell viability assay in HCC461
[3] = HCC461, HCC461, Tables 6-9, read-out: IC50 (μM) in cell viability assay in HCC461
[4] = HCC461, Tables 15-18, read-out: IC50 (uM) in cell viability assay in HCC461

SMILES: CN[C@@H](C)C(=O)N[C@H](C(=O)N1C[C@@H](NC(=O)c2cc(C(=O)N[C@H]3C[C@@H](C(=O)NCc4ccc(F)cc4)N(C(=O)[C@@H](NC(=O)[C@H](C)NC)C(C)(C)C)C3)[nH]n2)C[C@H]1C(=O)NCc1ccc(F)cc1)C(C)(C)C [Compound P3-72]
IC50 [1]: 0.023 µM

SMILES: CN[C@@H](C)C(=O)N[C@H](C(=O)N1CCC[C@H]1C(=O)N[C@H](CNC(=O)c1ccc(C(=O)NC[C@@H](NC(=O)[C@@H]2CCCN2C(=O)[C@@H](NC(=O)[C@H](C)NC)C(C)(C)C)C2CCCCC2)cc1)C1CCCCC1)C(C)(C)C [Compound P4-8]
IC50 [2]: 0.2 µM

SMILES: CN[C@@H](C)C(=O)N[C@H](C(=O)N1C[C@@H](NC(=O)c2cccc(C(=O)N[C@H]3C[C@@H](C(=O)N(C)Cc4ccccc4)N(C(=O)[C@@H](NC(=O)[C@H](C)NC)C(C)(C)C)C3)c2)C[C@H]1C(=O)N(C)Cc1ccccc1)C(C)(C)C [Compound P3-49]
IC50 [1]: 0.141 µM

SMILES: CN[C@@H](C)C(=O)N[C@H](C(=O)N1C[C@@H](NC(=O)c2cccc(C(=O)NCCCC[C@H](NC(=O)[C@@H](NC(=O)[C@H](CO)NC)C(C)(C)C)C(=O)N[C@@H](C)C(C)C)c2)CC1C(=O)N[C@@H]1CCc2ccccc2C1)C(C)(C)C (some centres unmarked) [Compound 165]
IC50 (HCC461, Tables 6-9, read-out: IC50 (μM) in cell viability assay in HCC461): > 30 µM

SMILES: CN[C@@H](C)C(=O)N[C@H](C(=O)N1C[C@@H](NC(=O)C(O)CC(=O)N[C@H]2C[C@@H](C(=O)NC3CCCc4ccccc43)N(C(=O)[C@@H](NC(=O)[C@H](C)NC)C(C)(C)C)C2)CC1C(=O)N[C@@H]1CCCc2ccccc21)C(C)(C)C (some centres unmarked) [Compound P3-84]
IC50 [1]: 0.1 µM

SMILES: CN[C@@H](C)C(=O)N[C@H](C(=O)N1CCC[C@H]1C(=O)N[C@H](CNC(=O)CCCC(=O)NC[C@@H](NC(=O)[C@@H]1CCCN1C(=O)[C@@H](NC(=O)[C@H](C)NC)C(C)(C)C)c1ccccc1)c1ccccc1)C(C)(C)C [Compound P4-14]
IC50 [2]: 0.093 µM

SMILES: CN[C@@H](C)C(=O)NC(C(=O)N1C[C@@H](NC(=O)c2cccc(C(=O)NCCCC[C@H](NC(=O)[C@H](C)NC)C(=O)NC(C(=O)N3CCCCC3)C(C)(C)C)c2)C[C@H]1C(=O)N[C@@H]1CCCc2ccccc21)C(C)(C)C (some centres unmarked) [Compound 151]
IC50 [3]: 0.297 µM

SMILES: CN[C@@H](C)C(=O)N[C@H](C(=O)N1CCC[C@H]1C(=O)N[C@H](CNC(=O)C1CCCC(C(=O)NC[C@@H](NC(=O)[C@@H]2CCCN2C(=O)[C@@H](NC(=O)[C@H](C)NC)C(C)(C)C)C2CCCCC2)C1)C1CCCCC1)C(C)(C)C (single isomer, unassigned) [Compound P4-5]
IC50 [4]: 0.011 µM

SMILES: CN[C@@H](C)C(=O)N[C@@H](CC#CC#CC[C@H](NC(=O)[C@H](C)NC)C(=O)N1C[C@@H](NC(C)c2ccccc2)C[C@H]1C(=O)N[C@@H]1CCCc2ccccc21)C(=O)N1C[C@@H](NC(=O)c2ccccc2)C[C@H]1C(=O)N[C@@H]1CCCc2ccccc21 (some centres unmarked) [Compound P2-10]
IC50 [4]: 0.109 µM

SMILES: CN[C@@H](C)C(=O)N[C@H](C(=O)N1CCC[C@H]1C(=O)N[C@H](COCc1cccc(COC[C@@H](NC(=O)[C@@H]2CCCN2C(=O)[C@@H](NC(=O)[C@H](C)NC)C(C)(C)C)C2CCCCC2)c1)c1ccccc1)C(C)(C)C [Compound P4-18]
IC50 [2]: 0.013 µM

SMILES: CN[C@@H](C)C(=O)N[C@@H](CCCCNC(=O)c1cc(O)cc(C(=O)NCCCC[C@H](NC(=O)[C@H](C)NC)C(=O)N2CCC[C@H]2C(=O)N[C@@H]2CCCc3ccccc32)c1)C(=O)N1CCC[C@H]1C(=O)N[C@@H]1CCCc2ccccc21 [Compound P2-25]
IC50 [2]: 0.086 µM

SMILES: CC[C@@H](C)C(=O)N[C@H](C(=O)N1C[C@@H](NC(=O)c2cccc(C(=O)N[C@H]3C[C@@H](C(=O)NC(c4ccccc4)c4ccccc4)N(C(=O)[C@@H](NC(=O)[C@H](C)NC)C(C)(C)C)C3)c2)C[C@H]1C(=O)NC(c1ccccc1)c1ccccc1)C(C)(C)C [Compound P3-51]
IC50 [1]: 0.026 µM

SMILES: CN[C@@H](C)C(=O)N[C@H](C(=O)N1C[C@@H](NC(=O)c2cc(N)cc(C(=O)N[C@H]3C[C@@H](C(=O)N[C@H](C)c4ccccc4)N(C(=O)[C@@H](NC(=O)[C@H](C)NC)C(C)C)C3)c2)C[C@H]1C(=O)N[C@H](C)c1ccccc1)C(C)C [Compound P3-81]
IC50 [1]: 0.058 µM

SMILES: C#CC[C@H](NC(=O)[C@H](C)NC)C(=O)N1C[C@@H](NC(=O)c2ccc(C(=O)N[C@H]3C[C@@H](C(=O)N[C@@H]4CCCc5ccccc54)N(C(=O)[C@H](CC#C)NC(=O)[C@H](C)NC)C3)cc2)C[C@H]1C(=O)N[C@@H]1CCCc2ccccc21 [Compound P3-4]
IC50 [1]: 0.006 µM

SMILES: CCC[C@H](NC(=O)[C@H](C)NC)C(=O)N1C[C@@H](NC(=O)c2cccc(C(=O)N[C@H]3C[C@@H](C(=O)N[C@@H]4CCCc5ccccc54)N(C(=O)[C@@H](NC(=O)[C@H](C)NC)C(C)(C)C)C3)c2)C[C@H]1C(=O)N1CCCCC1 [Compound 141]
IC50 [3]: 0.109 µM

SMILES: CN[C@@H](C)C(=O)N[C@@H](CCNC(=O)c1cccc(C(=O)NCC[C@H](NC(=O)[C@H](C)NC)C(=O)N2CCC[C@H]2C(=O)N[C@@H]2CCCc3ccccc32)c1)C(=O)N1CCC[C@H]1C(=O)N[C@@H]1CCCc2ccccc21 [Compound P2-26]
IC50 [2]: 0.08 µM

The next lines start with the values.

IC50 [1]: 0.023 µM
SMILES: C#CC[C@H](NC(=O)[C@H](C)NC)C(=O)N1C[C@@H](NC(=O)c2cnc(C(=O)N[C@H]3C[C@@H](C(=O)N[C@@H]4CCCc5ccccc54)N(C(=O)[C@H](CC#C)NC(=O)[C@H](C)NC)C3)cn2)C[C@H]1C(=O)N[C@@H]1CCCc2ccccc21 [Compound P3-14]

IC50 [1]: 0.024 µM
SMILES: CN[C@@H](C)C(=O)N[C@H](C(=O)N1C[C@@H](NC(=O)C2CCCC(C(=O)N[C@H]3C[C@@H](C(=O)N[C@H](C)C4CCCCC4)N(C(=O)[C@@H](NC(=O)[C@H](C)NC)C(C)(C)C)C3)C2)C[C@H]1C(=O)N[C@H](C)C1CCCCC1)C(C)(C)C (some centres unmarked) [Compound P3-46]

IC50 [3]: 0.083 µM
SMILES: CCC[C@H](NC(=O)[C@H](C)NC)C(=O)N1C[C@@H](NC(=O)c2cccc(C(=O)N[C@H]3C[C@@H](C(=O)N[C@@H]4CCCc5ccccc54)N(C(=O)[C@@H](NC(=O)[C@H](C)NC)C(C)(C)C)C3)c2)C[C@H]1C(=O)NC(C)(C)C [Compound 156]

IC50 [1]: 0.057 µM
SMILES: CN[C@@H](C)C(=O)N[C@H](C(=O)N1C[C@@H](NC(=O)/C=C/C(=O)N[C@H]2C[C@@H](C(=O)N[C@H](C)c3ccccc3)N(C(=O)[C@@H](NC(=O)[C@H](C)NC)C(C)(C)C)C2)C[C@H]1C(=O)N[C@H](C)c1ccccc1)C(C)(C)C [Compound P3-75]

IC50 [2]: 0.021 µM
SMILES: CC[C@H](NC)C(=O)N[C@@H](CCCCCC[C@H](NC(=O)[C@H](CC)NC)C(=O)N1CCC[C@H]1C(=O)N[C@@H]1CCCc2ccccc21)C(=O)N1CCC[C@H]1C(=O)N[C@@H]1CCCc2ccccc21 [Compound P2-12]

IC50 [2]: 0.025 µM
SMILES: CN[C@@H](C)C(=O)N[C@@H](COCC#CC#CCOC[C@H](NC(=O)[C@H](C)NC)C(=O)N1CCCC1C(=O)N[C@@H]1CCCc2ccccc21)C(=O)N1CCCC1C(=O)N[C@@H]1CCCc2ccccc21 (some centres unmarked) [Compound P2-19]

IC50 [3]: 0.072 µM
SMILES: CN[C@@H](C)C(=O)N[C@@H](CCC(=O)OC)C(=O)N1C[C@@H](NC(=O)c2cccc(C(=O)N[C@H]3C[C@@H](C(=O)N[C@@H]4CCCc5ccccc54)N(C(=O)[C@@H](NC(=O)[C@H](C)NC)C(C)(C)C)C3)c2)CC1C(=O)N[C@H](C)c1ccccc1 (some centres unmarked) [Compound 149]

IC50 [1]: 0.075 µM
SMILES: CN[C@@H](C)C(=O)N[C@H](C(=O)N1C[C@@H](NC(=O)c2cc(OC)cc(C(=O)N[C@H]3C[C@@H](C(=O)N[C@H](C)c4ccccc4)N(C(=O)[C@@H](NC(=O)[C@H](C)NC)C(C)(C)C)C3)c2)C[C@H]1C(=O)N[C@H](C)c1ccccc1)C(C)(C)C [Compound P3-73]

IC50 [4]: 0.009 µM
SMILES: CC[C@H](NC)C(=O)N[C@@H](CC#CC#CC[C@H](NC(=O)[C@H](CC)NC)C(=O)N1CCC[C@H]1C(=O)N[C@@H]1CCCc2ccccc21)C(=O)N1CCC[C@H]1C(=O)N[C@@H]1CCCc2ccccc21 [Compound P2-8]

IC50 [3]: 0.121 µM
SMILES: CN[C@@H](C)C(=O)N[C@@H](CCC(=O)OC)C(=O)N1C[C@@H](NC(=O)c2cccc(C(=O)N[C@H]3C[C@@H](C(=O)N[C@H](C)c4ccccc4)N(C(=O)[C@@H](NC(=O)[C@H](C)NC)C(C)(C)C)C3)c2)CC1C(=O)N[C@H](C)c1ccccc1 (some centres unmarked) [Compound 150]

IC50 (HCC461 cells, compound alone, read-out: IC50 (uM) in cell viability assay in HCC461): 0.019 µM
SMILES: CN[C@@H](C)C(=O)N[C@H](C(=O)N1C[C@@H](NC(=O)C2CCCC(C(=O)N[C@H]3C[C@@H](C(=O)NC4CCCc5ccccc54)N(C(=O)[C@@H](NC(=O)[C@H](C)NC)C(C)(C)C)C3)C2)CC1C(=O)N[C@@H]1CCCc2ccccc21)C(C)(C)C (some centres unmarked) [Compound P3-28]

IC50 [3]: 0.28 µM
SMILES: CCC[C@H](NC(=O)[C@H](C)NC)C(=O)N1C[C@@H](NC(=O)c2cccc(C(=O)N[C@H]3C[C@@H](C(=O)N[C@@H]4CCCc5ccccc54)N(C(=O)[C@@H](NC(=O)[C@H](C)NC)C(C)(C)C)C3)c2)C[C@H]1C(=O)N[C@H](C)C(C)C [Compound 140]

IC50 [1]: 0.003 µM
SMILES: CN[C@@H](C)C(=O)N[C@H](C(=O)N1C[C@@H](NC(=O)c2cncc(C(=O)N[C@H]3C[C@@H](C(=O)N[C@@H]4CCCc5ccccc54)N(C(=O)[C@@H](NC(=O)[C@H](C)NC)C(C)(C)C)C3)c2)C[C@H]1C(=O)N[C@@H]1CCCc2ccccc21)C(C)(C)C [Compound P3-11]

IC50 [3]: 0.849 µM
SMILES: CN[C@@H](C)C(=O)N[C@H](C(=O)N1C[C@@H](NC(=O)c2cccc(C(=O)NCC[C@@H](NC(=O)[C@H](NC(=O)[C@H](N)CO)C(C)C)C(=O)N[C@@H](C)C(C)C)c2)C[C@H]1C(=O)N[C@@H]1CCCc2ccccc21)C(C)(C)C [Compound 139]

IC50 [2]: 0.088 µM
SMILES: CN[C@@H](C)C(=O)N[C@@H](Cc1ccc(O[C@H]2C[C@@H](C(=O)N[C@@H]3CCCc4ccccc43)N(C(=O)[C@@H](NC(=O)[C@H](C)NC)C(C)(C)C)C2)cc1)C(=O)N1CCCC1 [Compound H-3]

IC50 [1]: 0.002 µM
SMILES: CN[C@@H](C)C(=O)N[C@H](C(=O)N1C[C@@H](NC(=O)Cc2cccc(CC(=O)N[C@H]3C[C@@H](C(=O)N[C@@H]4CCCc5ccccc54)N(C(=O)[C@@H](NC(=O)[C@H](C)NC)C(C)(C)C)C3)c2)C[C@H]1C(=O)N[C@@H]1CCCc2ccccc21)C(C)(C)C [Compound P3-19]
